Columns and labels:
Format in all cases: cell-based
[1] = system: PKB Ser473 phosphorylation in Rat1-myr-HA-p110 alpha cells; experiment: Reverse protein array, PKB Ser473 phosphorylation in Rat1-myr-HA-p110 alpha cells; details: Rattus norvegicus, 0.5 h, 30 minutes compound incubation, read-out: p-PKB/IC50_alpha
Protocol: (§1) No. 15140-114) and 10 μg/ml Puromycine (Sigma, cat. No. P9620).
(§2) The Rat1-myr-HA-p110 alpha, beta and delta cells were trypsinized and counted with a CASY TT cell counter (Schärfe System GmbH, Reutlingen Germany). The cells were diluted in fresh DMEM complete medium and 3×10^4 cells/150 μl/well seeded in 96-well TPP-tissue culture plates (TPP, cat. No. 92096). The plates were incubated at 37° C. and 5% CO2 under humidified condition for at least 20 h. Compound of formula I working solutions were prepared freshly as serial 8 step dilutions (vol/vol) in DMSO on the day of the experiment. The working solutions were further diluted 1/500 in cell culture medium to get final compound concentrations of 10, 3.333, 1.111, 0.370, 0.123, 0.041, 0.014, 0.005 μM. The final DMSO concentration was kept constant at 0.2%. cell culture medium containing 0.2% DMSO was used as vehicle treatment control. Post incubation, the cells were treated with the serial compound dilution. 50 μl of the compound medium mixture was added to the wells containing cells and 150 μl DMEM medium and incubated for 30 minutes (37° C., 5% CO2). After 30 minutes of incubation, the medium mixture was quickly removed by aspiration. For cell lysis, a mixture of 10% CLB1 CeLyA lysis buffer (Zeptosens, cat. No. 9000), 90% CSBL1 CeLyA spotting buffer (Zeptosens, cat. No. 9020) was freshly prepared and supplemented with 1% Octyl β-D-glucopyranoside (SIGMA, cat. No. 08001-5G) and 1 mM Na-Orthovanadate (Sigma, cat No. S-6508). 50 μl of the described lysis buffer mix was added to each well, followed by 10 minutes of incubation on ice. After an additional freeze-thaw cycle, another 50 μl of the lysis buffer mix without Octyl β-D-glucopyranoside was added to the wells, and 90 μl of the cell lysate was transferred to a 96-well V-bottom plate (Fisher Scientific, cat. No. 6067Y), followed by a centrifugation step (5 min, 1500 rpm at 19° C. in an Eppendorf 5810R centrifuge) to remove the unlysed cell debris.
(§3) The samples were spotted onto ZeptoMARK® PWG protein microarray chips (Zeptosens, Witterswil, Switzerland) with the piezoelectric microdispense-based, non-contact Nano-Plotter 2.1 (GeSiM, Grosserkmannsdorf, Germany). Each sample was spotted at 4 different sample concentrations (d1=100%, d2=75%, d3=50%, d4=25%) by diluting the cell lysate with the corresponding volume of lysis buffer mix. After spotting the ZeptoMARK® protein microarrays, the chips are incubated for 1 hour at 37° C. To receive a uniform blocking result, the CeLyA blocking buffer BB1 (Zeptosens, cat. No. 9040) is administered via an ultrasonic nebulizer. After 20 minutes of blocking the chips are extensively rinsed with deionized water (Milli-Q quality, 18MΩ×cm) and dried in a nitrogen air flow.
(§4) After the sample spotting and blocking procedure, the ZeptoMARK® chips were transferred to the ZeptoCARRIER (Zeptosens, cat. No. 1100), whose six flow cells individually address the six arrays on a chip, and washed twice with 200 μl CAB1 CeLyA assay buffer (Zeptosens, cat. No. 9032). The assay buffer was then aspirated and each compartment incubated with 100 μl of the primary target antibody (pAkt Ser473; CST#9271) at RT over night. Post incubation, the primary antibody was removed, the arrays washed twice with CAB1 buffer and further incubated with 100 μl of Alexa fluor 647-labeled anti rabbit IgG Fab fragments (Invitrogen; #Z25305) for one hour at RT in the dark. After incubation, the arrays were washed twice with 200 μl CAB1 buffer. The fluorescence of the target-bound Fab fragments is read out on the ZeptoReader (Zeptosens, Witterswil, Switzerland) using a laser (excitation wavelength 635 nm) and a CCD camera. The fluorescence signal was assessed with exposure times of 1, 3, 5 and 10 seconds, depending on the intensity of the signal. The resulting four images taken per array are stored as 16-bit TIF files. […]

[2] = system: PKB Ser473 phosphorylation in Rat1-myr-HA-p110 delta cells; experiment: Reverse protein array, PKB Ser473 phosphorylation in Rat1-myr-HA-p110 delta cells; details: Rattus norvegicus, 0.5 h, 30 minutes compound incubation, read-out: p-PKB/IC50_delta
Protocol: as §1, §2, §3, §4

[3] = system: PKB Ser473 phosphorylation in Rat1-myr-HA-p110 beta cells; experiment: Reverse protein array, PKB Ser473 phosphorylation in Rat1-myr-HA-p110 beta cells; details: Rattus norvegicus, 0.5 h, 30 minutes compound incubation, read-out: p-PKB/IC50_beta
Protocol: as §1, §2, §3, §4

SMILES	IC50 [1] [µM]	IC50 [2] [µM]	IC50 [3] [µM]
CNc1ccc(-c2ccc3ncc4c(c3c2)n(-c2ccc(OC)nc2C)c(=O)n4C)cn1 [Example 11.2, 1-(6-Methoxy-2-methyl-pyridin-3-yl)-3-methyl-8-(6-methylamino-pyridin-3-yl)-1,3-dihydro-imidazo[4,5-c]quinolin-2-one]	0.00697	0.0314	0.0152
COc1ccc(-n2c(=O)n(C)c3cnc4ccc(-c5cnc(N(C)C)nc5)cc4c32)c(C)n1 [Example 11.4, 8-(2-Dimethylamino-pyrimidin-5-yl)-1-(6-methoxy-2-methyl-pyridin-3-yl)-3-methyl-1,3-dihydro-imidazo[4,5-c]quinolin-2-one]	0.0866	0.136	0.127
CNc1ncc(-c2ccc3ncc4c(c3c2)n(-c2ccc(OC)nc2C)c(=O)n4C)cn1 [Example 11.3, 1-(6-Methoxy-2-methyl-pyridin-3-yl)-3-methyl-8-(2-methylamino-pyrimidin-5-yl)-1,3-dihydro-imidazo[4,5-c]quinolin-2-one]	0.00883	0.0232	0.0181

Results, then the compound that gave them:

IC50 [1] [µM]	IC50 [2] [µM]	IC50 [3] [µM]	SMILES
0.00611	0.0155	0.013	COc1ccc(-n2c(=O)n(C)c3cnc4ccc(-c5cnc(N)c(C(F)(F)F)c5)cc4c32)c(C)n1 [Example 11.6, 8-(6-Amino-5-trifluoromethyl-pyridin-3-yl)-1-(6-methoxy-2-methyl-pyridin-3-yl)-3-methyl-1,3-dihydro-imidazo[4,5-c]quinolin-2-one]
0.0169	0.0669	0.0408	COc1ccc(-c2ccc3ncc4c(c3c2)n(-c2ccc(OC)nc2C)c(=O)n4C)cn1 [Example 11.5, 1-(6-Methoxy-2-methyl-pyridin-3-yl)-8-(6-methoxy-pyridin-3-yl)-3-methyl-1,3-dihydro-imidazo[4,5-c]quinolin-2-one]
